Reference: paper doi:10.1101/2023.05.15.540887, “Comparative analysis of drug-like EP300/CREBBP acetyltransferase inhibitors” (bioRxiv, 2023)
Where “and” joins values, the source holds several entries; their conditions need not be identical. Identical values can stand only once. Like-named read-outs stand apart in the source and are kept apart here.

Columns and labels:
[1] = system: histone H3 acetylation in T-47D cells; assay: Quantitative LC-MS analysis of histone H3 acetylation in T-47D cells; type: cell-based, human; details: 24 h
Source text: In principle the phenotype elicited by any single small molecule can be due to either an on- or off-target effect; however, if multiple chemically distinct small molecules designed to target a single gene all elicit the same phenotype, one’s confidence in their on-target mechanism becomes greater. As such, we sought to apply our knowledge of the comparative potencies of 1-3 to test whether the simplest phenotype caused by EP300/CREBBP inhibitors – cell death – was consistent with their effects on histone acetylation and a putative on-target mechanism. Compounds 1-3 were submitted for analysis in the NCI-60 screen, which has been used since 1990 to analyze the growth inhibitor effects of small molecules across a range of transformed cell lines derived from diverse tissues of origin including colorectal, renal, ovarian, prostate, lung, breast, and central nervous system tumors.[28] […] These trends were further confirmed using an orthogonal ATP-Glo assay in MCF-7 cells (Fig. S2). Subsequently, the COMPARE algorithm was used to compare the patterns of growth inhibition elicited by 1-3 in the NCI-60 assay against the >150,000 compounds analyzed in the screen to date.[29] […] Finally, the specificity of CPI-1612 (3) was directly assessed using quantitative LC-MS analysis of histone acetylation in treated cells,[33] focusing on four abundant histone acetylation markers whose writers are well-characterized: H3K9Ac (written by KAT2A/B), H3K14Ac (KAT7), H3K18Ac (EP300/CREBBP), and H3K23Ac (KAT6A/B; Fig. 3e).[26] […] An increase in the levels of singly modified H3K23Ac peptide coincided with specific loss of H3K18Ac from K18/K23 diacetylated peptide, indicative of orthogonal regulation. Overall, the parallel trends in the biochemical and cellular potencies of EP300/CREBBP inhibitors are consistent with an on-target mechanism for 1-3 and further highlight the relatively high potency of CPI-1612 (3).
T-47D cells were plated at 4 x 10^6 cells per plate in 10 cm dishes in 10 mL of media. After 16-24 h cells were treated with 5, 50, or 500 nM of 3. Compound 3 was dosed from stock solutions equal to 100x the final concentration in RPMI-1640. When necessary additional DMSO was added to maintain a constant concentration of 0.1%. Controls were treated with vehicle DMSO (0.1%). After 24 h, cells were washed with 5 mL ice cold 1x PBS, scraped in 5 mL of 1x PBS, transferred to a pre-chilled 15 mL tube, centrifuged (800 rcf x 5 min), and either snap frozen or immediately processed via the following protocol.^5 Pellets were washed twice and resuspended in 400 µL NIB (15 mM pH 7.5 Tris-HCl, 60 mM KCl, 15 mM NaCl, 5 mM MgCl2, 1 mM CaCl2, 250 mM sucrose, 1X protease inhibitor cocktail [Cell Signaling Technology #5871]), 1 mM DTT, and 10 mM sodium butyrate) with 0.3% IGEPAL CA-630 to lyse cells. Suspensions were transferred into tubes on ice and incubated for >5 min. Nuclei were pelleted (700 rcf, 4 °C , 5 min) and the supernatant discarded. Pelleted nuclei were subjected to two cycles of a wash with 500 µL NIB (without IGEPAL CA-630) followed by centrifugation (700 rcf, 4 °C , 5 min) in order to remove all IGEPAL CA-630. Nuclei were re-suspended in 200 µL 0.2 N H2SO4 and rotated at 4 °C for 2 h. Samples were then centrifuged (3,400 rcf, 4 °C , 5 min) and supernatants transferred into new tubes (pellets discarded). 66 µL of 100% TCA was added to each sample (final TCA concentration: 20%) and tubes were inverted once. Histones were precipitated at 4 °C for 16 h, then centrifuged (3,400 rcf, 4 °C , 5 min) and supernatants carefully discarded, with histones now visible as films on the sides and at the bottom of tubes. Histones were subjected to two cycles of washing (0.5 mL of ice-cold acetone + 1% 1M HCl, followed by 1 mL of 100% ice-cold acetone) followed by centrifugation (11,000 rcf, 4 °C , 5 min) after each step. Samples were air dried at room temperature and resuspended in 30 µL of ddH2O. […]

CCRF-CEM = assay: NCI-60 growth inhibition (sulforhodamine B); type: cell-based, human; details: CCRF-CEM (Leukemia), negative log of Molar conc., LCONC -8
SR = assay: NCI-60 growth inhibition (sulforhodamine B); type: cell-based, human; details: SR (Leukemia), negative log of Molar conc., LCONC -8
UACC-257 = assay: NCI-60 growth inhibition (sulforhodamine B); type: cell-based, human; details: UACC-257 (Melanoma), negative log of Molar conc., LCONC -8
786-0 = assay: NCI-60 growth inhibition (sulforhodamine B); type: cell-based; details: Homo sapiens, 786-0, Renal Cancer, negative log of Molar value, LCONC -8, EXPID 2301NS84
HS578T = assay: NCI-60 growth inhibition (sulforhodamine B); type: cell-based; details: Homo sapiens
T-47D = assay: NCI-60 growth inhibition (sulforhodamine B); type: cell-based; details: Homo sapiens, T47D
[2] = Homo sapiens, read-out: IC50 NLOGVALUE (converted)
[3] = Homo sapiens, read-out: LC50 NLOGVALUE

SMILES: C[C@H](CN[C@@H](C(=O)Nc1ccc(-c2cnn(C)c2)cn1)c1ccccc1)c1ccc(C#N)cc1 [CPI-1612]
- specificity on histone H3 acetylation marks (H3K9Ac, H3K14Ac, H3K18Ac, H3K23Ac) ([1]; T-47D cells, 5, 50 or 500 nM, LC-MS): affected the abundance of only the EP300/CREBBP-dependent peptides containing H3K18Ac
- ratio normalized to largest mean (vehicle or 500 nM), H3_9_17 K9ac (K9Ac) ([1]; T-47D, 5 nM, Rep1-3): 160.77 and 142.38
- ratio normalized to largest mean (vehicle or 500 nM), H3_18_26 K18ac (K18Ac) ([1]; T-47D, 5 nM, Rep1-3): 31.25 and 26.23 and 16.75
- ratio normalized to largest mean (vehicle or 500 nM), summed H3_9_17 K14ac peptides (K14Ac) ([1]; T-47D, 5 nM, Rep1-3): 93.75 and 92.27 and 95.59
- ratio, H3_9_17 K9ac (K9Ac) ([1]; T-47D, 5 nM, Rep1-3): 0.039 and 0.034
- ratio, H3_18_26 K18ac (K18Ac) ([1]; T-47D, 5 nM, Rep1-3): 0.0063 and 0.0053 and 0.0034
- ratio, H3_18_26 K18acK23ac (K18K23Ac) ([1]; T-47D, 5 nM, Rep1-3): 0.0043 and 0.0044 and 0.0039
- ratio, H3_18_26 K23ac (K23Ac) ([1]; T-47D, 5 nM, Rep1-3): 0.2133 and 0.2165 and 0.1842
- ratio, summed H3_9_17 K14ac peptides (K14Ac) ([1]; T-47D, 5 nM, Rep1-3): 0.181 and 0.179 and 0.185
- ratio normalized to largest mean (vehicle or 500 nM), summed H3_9_17 K14ac peptides (K14Ac) ([1]; T-47D, 50 nM, Rep1-3): 92.31 and 100.80 and 86.46
- ratio, H3_18_26 K23ac (K23Ac) ([1]; T-47D, 50 nM, Rep1-3): 0.2929 and 0.2070 and 0.3135
- ratio, summed H3_9_17 K14ac peptides (K14Ac) ([1]; T-47D, 50 nM, Rep1-3): 0.167 and 0.179 and 0.195
- ratio normalized to largest mean (vehicle or 500 nM), H3_18_26 K18ac (K18Ac) ([1]; T-47D, 500 nM, Rep1-3): 2.61 and 1.89 and 1.57
- ratio normalized to largest mean (vehicle or 500 nM), summed H3_9_17 K14ac peptides (K14Ac) ([1]; T-47D, 500 nM, Rep1-3): 103.05 and 88.46 and 106.21
- ratio, H3_18_26 K18ac (K18Ac) ([1]; T-47D, 500 nM, Rep1-3): 0.0005 and 0.000379 and 0.0003
- ratio, H3_18_26 K23ac (K23Ac) ([1]; T-47D, 500 nM, Rep1-3): 0.2977 and 0.3570 and 0.3048
- ratio, summed H3_9_17 K14ac peptides (K14Ac) ([1]; T-47D, 500 nM, Rep1-3): 0.199 and 0.171 and 0.206
- TGI NLOGVALUE (CCRF-CEM): 4
- GI50 (CCRF-CEM; Homo sapiens, read-out: GI50 NLOGVALUE): < 0.01 µM
- IC50 (CCRF-CEM; [2]): 0.135 µM
- CC50 (CCRF-CEM; [3]): > 100 µM
- GI50 (SR; Homo sapiens, read-out: GI50 NLOGVALUE (converted)): 1.86 µM
- IC50 (SR; [2]): 56.2 µM
- TGI NLOGVALUE (SR): 4
- IC50 (UACC-257; Homo sapiens, read-out: IC50 NLOGVALUE): > 100 µM
- CC50 (UACC-257; [3]): > 100 µM
- TGI NLOGVALUE (UACC-257): 4
- GI50 (786-0; read-out: GI50 NLOGVALUE (converted)): 55 µM
- IC50 (786-0; read-out: IC50 NLOGVALUE): > 100 µM
- CC50 (786-0; read-out: LC50 NLOGVALUE): > 100 µM
- GI50 (HS578T; Hs-578T, read-out: GI50 AVGDATA (converted)): 0.0138 µM
- GI50 (HS578T; HS 578T, Breast Cancer, negative log of Molar value, LCONC -8, EXPID 2301NS84, read-out: GI50 NLOGVALUE (converted)): 0.0141 µM
- IC50 (HS578T; HS 578T, Breast Cancer, negative log of Molar value, LCONC -8, EXPID 2301NS84, read-out: IC50 NLOGVALUE): > 100 µM
- CC50 (HS578T; HS 578T, Breast Cancer, negative log of Molar value, LCONC -8, EXPID 2301NS84, read-out: LC50 NLOGVALUE): > 100 µM
- GI50 (T-47D; T-47D, Breast Cancer, negative log of Molar value, LCONC -8, EXPID 2301NS84, read-out: GI50 NLOGVALUE (converted)): 0.0115 µM
- IC50 (T-47D; T-47D, Breast Cancer, negative log of Molar value, LCONC -8, EXPID 2301NS84, read-out: IC50 NLOGVALUE (converted)): 42.7 µM
- CC50 (T-47D; T-47D, Breast Cancer, negative log of Molar value, LCONC -8, EXPID 2301NS84, read-out: LC50 NLOGVALUE): > 100 µM
- GI50 (T-47D; read-out: GI50 AVGDATA (converted)): 0.0117 µM
